According to ChEMBL document CHEMBL1201862, “PubChem BioAssay data set” (2004):
Each block holds one molecule with its values, some of them ahead of it. Active and inactive are the calls of the source.

Experiments:
Cytochrome P450 2C9 [1] = biological target: T1, Cytochrome P450 2C9 (Homo sapiens, UniProt P11712); details: Potency
Cytochrome P450 1A2 = biological target: T2, Cytochrome P450 1A2 (Homo sapiens, UniProt P05177);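 further: PubChem cytochrome P450 panel assay, CYP1A2 panel member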
T2 sequence (P05177 whole entry): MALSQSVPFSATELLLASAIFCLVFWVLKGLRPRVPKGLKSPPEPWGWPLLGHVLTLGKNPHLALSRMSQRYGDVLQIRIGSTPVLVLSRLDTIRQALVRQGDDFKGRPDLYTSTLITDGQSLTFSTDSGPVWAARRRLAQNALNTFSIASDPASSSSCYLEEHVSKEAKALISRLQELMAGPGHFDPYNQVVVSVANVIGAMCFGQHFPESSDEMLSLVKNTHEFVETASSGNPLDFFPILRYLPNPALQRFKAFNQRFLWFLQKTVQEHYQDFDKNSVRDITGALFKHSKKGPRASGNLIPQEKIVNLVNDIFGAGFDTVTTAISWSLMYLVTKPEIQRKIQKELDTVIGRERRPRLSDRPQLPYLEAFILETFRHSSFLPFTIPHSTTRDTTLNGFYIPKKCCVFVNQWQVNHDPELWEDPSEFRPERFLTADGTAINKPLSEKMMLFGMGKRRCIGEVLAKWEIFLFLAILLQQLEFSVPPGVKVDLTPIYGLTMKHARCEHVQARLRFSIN

Cytochrome P450 2C9 [2] = biological target: T1, Cytochrome P450 2C9
[3] = biological target: T3, Neuropeptides B/W receptor type 1 (Homo sapiens, UniProt P48145); test: Fluorescence-based dose response cell-based high throughput screening assay to identify antagonists of the G-protein coupled receptor 7 (GPR7). [Related pubchem assays: 1952 (Screening assay (GPR7 antagonists).), 1880 (Summary AID.)]; type: functional
T3 sequence (P48145 whole entry): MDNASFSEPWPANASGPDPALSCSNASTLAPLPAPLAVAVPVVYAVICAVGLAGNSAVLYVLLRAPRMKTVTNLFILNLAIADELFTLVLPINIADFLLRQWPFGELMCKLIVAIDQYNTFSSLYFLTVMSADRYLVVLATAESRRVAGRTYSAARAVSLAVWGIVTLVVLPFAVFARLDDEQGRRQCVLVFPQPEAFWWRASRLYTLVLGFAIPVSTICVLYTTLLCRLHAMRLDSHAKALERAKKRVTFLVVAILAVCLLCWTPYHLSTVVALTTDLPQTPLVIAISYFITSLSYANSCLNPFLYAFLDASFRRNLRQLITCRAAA

[4] = biological target: Melanin-concentrating hormone receptor 1 (Homo sapiens, UniProt Q99705); test: Fluorescence-based counterscreen for antagonists of the G-protein coupled receptor 7 (GPR7): cell-based high throughput dose response assay to identify antagonists of the melanin-concentrating hormone receptor 1 (MCHR1).; type: functional
[5] = biological target: Voltage-dependent T-type calcium channel subunit alpha-1H (Homo sapiens, UniProt O95180); type: functional;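 further: channel activity triggered by adding a high calcium stimulation buffer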
Vero = test: Vero E6 cell cytotoxicity, SAR follow-up, cytotoxicity control for West Nile virus antiviral project, synthesized analogs (AID 2244); type: functional; details: Chlorocebus sabaeus
Cytochrome P450 2D6 = Cytochrome P450 2D6 (Homo sapiens, UniProt P10635); test: qHTS Assay for Inhibitors and Substrates of Cytochrome P450 2D6. [Related pubchem assays: 410 ]; type: ADME; details: read-out: Potency
Cytochrome P450 3A4 = Cytochrome P450 3A4 (Homo sapiens, UniProt P08684); details: Potency;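 further: confirmatory qHTS run detecting inhibitors and substrates of CYP3A4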
Chain of Cytochrome P450 3A4 (P08684 whole entry): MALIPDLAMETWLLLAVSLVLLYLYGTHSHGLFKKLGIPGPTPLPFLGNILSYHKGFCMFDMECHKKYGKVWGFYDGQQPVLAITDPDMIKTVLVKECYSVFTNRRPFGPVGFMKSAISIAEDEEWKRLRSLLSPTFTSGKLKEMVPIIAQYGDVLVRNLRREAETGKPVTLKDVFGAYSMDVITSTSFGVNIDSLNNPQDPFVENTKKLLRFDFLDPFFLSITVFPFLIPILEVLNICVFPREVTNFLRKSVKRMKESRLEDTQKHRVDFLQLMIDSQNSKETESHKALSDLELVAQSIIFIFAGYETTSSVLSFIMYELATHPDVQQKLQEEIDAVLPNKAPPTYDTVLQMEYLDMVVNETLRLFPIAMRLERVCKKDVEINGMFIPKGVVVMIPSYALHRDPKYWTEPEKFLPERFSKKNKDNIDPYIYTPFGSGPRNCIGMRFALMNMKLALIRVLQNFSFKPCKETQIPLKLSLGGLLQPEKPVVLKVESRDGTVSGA

T1 sequence (P11712 whole entry): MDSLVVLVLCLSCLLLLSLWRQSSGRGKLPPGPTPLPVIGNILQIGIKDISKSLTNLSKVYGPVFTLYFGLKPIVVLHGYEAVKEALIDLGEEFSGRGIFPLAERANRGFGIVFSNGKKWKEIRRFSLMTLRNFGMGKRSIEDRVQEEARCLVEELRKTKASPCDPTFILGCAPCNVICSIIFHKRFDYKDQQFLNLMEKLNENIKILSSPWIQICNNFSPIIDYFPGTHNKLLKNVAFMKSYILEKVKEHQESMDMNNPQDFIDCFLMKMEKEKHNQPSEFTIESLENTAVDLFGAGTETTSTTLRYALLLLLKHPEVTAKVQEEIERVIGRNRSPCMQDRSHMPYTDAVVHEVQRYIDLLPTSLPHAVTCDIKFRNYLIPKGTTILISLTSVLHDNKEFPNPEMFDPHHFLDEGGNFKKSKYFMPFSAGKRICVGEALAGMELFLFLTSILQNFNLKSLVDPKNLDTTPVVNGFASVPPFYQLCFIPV
Chain of Voltage-dependent T-type calcium channel subunit alpha-1H (O95180 whole entry): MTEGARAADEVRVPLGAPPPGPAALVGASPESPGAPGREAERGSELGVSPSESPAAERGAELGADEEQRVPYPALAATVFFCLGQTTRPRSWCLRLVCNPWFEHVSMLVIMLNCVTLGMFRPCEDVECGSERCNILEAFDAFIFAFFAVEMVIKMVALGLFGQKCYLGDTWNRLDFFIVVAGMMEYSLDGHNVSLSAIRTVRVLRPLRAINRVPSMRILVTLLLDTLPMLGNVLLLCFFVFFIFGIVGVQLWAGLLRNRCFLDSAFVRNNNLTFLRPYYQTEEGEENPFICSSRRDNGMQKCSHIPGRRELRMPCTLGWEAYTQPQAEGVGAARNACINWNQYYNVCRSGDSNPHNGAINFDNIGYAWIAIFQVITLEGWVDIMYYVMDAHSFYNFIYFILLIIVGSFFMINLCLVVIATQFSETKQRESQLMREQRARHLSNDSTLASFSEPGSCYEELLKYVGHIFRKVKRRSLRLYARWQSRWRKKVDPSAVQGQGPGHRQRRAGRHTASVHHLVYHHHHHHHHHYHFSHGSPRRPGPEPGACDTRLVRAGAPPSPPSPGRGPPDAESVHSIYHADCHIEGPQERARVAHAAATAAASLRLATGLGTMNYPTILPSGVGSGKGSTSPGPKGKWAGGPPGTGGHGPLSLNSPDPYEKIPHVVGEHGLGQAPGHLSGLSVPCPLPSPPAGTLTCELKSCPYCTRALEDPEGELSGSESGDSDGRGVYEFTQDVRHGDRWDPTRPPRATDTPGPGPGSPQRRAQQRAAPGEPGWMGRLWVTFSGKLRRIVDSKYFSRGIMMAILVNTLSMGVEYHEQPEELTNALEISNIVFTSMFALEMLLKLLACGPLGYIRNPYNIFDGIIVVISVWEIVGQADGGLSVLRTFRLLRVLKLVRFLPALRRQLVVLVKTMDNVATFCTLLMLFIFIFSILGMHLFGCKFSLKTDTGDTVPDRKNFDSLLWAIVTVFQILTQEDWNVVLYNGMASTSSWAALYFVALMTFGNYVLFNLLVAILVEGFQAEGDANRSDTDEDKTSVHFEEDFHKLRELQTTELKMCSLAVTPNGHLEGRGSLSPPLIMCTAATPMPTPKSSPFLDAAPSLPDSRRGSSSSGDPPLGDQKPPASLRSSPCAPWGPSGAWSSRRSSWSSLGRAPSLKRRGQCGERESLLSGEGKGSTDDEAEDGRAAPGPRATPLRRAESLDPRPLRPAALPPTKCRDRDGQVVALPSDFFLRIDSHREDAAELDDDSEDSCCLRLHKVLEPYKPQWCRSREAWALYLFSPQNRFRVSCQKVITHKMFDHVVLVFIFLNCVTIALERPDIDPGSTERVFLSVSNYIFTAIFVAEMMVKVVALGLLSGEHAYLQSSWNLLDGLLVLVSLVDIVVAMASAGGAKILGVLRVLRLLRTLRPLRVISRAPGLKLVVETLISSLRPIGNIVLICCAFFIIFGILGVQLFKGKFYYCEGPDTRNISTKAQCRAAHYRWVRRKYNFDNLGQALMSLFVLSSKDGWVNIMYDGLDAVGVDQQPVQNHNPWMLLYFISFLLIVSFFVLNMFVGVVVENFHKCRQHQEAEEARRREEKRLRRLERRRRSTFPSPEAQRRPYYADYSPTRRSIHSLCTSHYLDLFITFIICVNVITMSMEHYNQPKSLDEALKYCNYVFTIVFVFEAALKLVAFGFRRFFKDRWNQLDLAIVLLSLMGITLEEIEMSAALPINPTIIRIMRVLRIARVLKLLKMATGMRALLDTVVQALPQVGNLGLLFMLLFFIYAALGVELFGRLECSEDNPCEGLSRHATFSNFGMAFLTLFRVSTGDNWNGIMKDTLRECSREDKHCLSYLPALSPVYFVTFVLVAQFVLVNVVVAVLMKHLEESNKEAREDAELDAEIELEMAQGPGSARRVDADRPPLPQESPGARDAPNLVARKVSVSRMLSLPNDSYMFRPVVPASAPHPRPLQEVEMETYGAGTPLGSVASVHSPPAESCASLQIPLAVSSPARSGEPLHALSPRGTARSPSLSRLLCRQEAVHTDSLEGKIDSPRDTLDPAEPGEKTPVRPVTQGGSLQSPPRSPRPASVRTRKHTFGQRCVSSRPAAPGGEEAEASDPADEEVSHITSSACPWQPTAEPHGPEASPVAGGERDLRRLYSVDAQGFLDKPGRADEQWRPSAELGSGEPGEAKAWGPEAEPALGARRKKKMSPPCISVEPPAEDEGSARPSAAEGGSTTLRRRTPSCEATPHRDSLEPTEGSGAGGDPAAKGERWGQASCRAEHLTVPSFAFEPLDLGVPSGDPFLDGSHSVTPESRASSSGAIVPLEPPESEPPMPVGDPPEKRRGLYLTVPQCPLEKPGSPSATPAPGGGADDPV
Chain of Cytochrome P450 2D6 (P10635 whole entry): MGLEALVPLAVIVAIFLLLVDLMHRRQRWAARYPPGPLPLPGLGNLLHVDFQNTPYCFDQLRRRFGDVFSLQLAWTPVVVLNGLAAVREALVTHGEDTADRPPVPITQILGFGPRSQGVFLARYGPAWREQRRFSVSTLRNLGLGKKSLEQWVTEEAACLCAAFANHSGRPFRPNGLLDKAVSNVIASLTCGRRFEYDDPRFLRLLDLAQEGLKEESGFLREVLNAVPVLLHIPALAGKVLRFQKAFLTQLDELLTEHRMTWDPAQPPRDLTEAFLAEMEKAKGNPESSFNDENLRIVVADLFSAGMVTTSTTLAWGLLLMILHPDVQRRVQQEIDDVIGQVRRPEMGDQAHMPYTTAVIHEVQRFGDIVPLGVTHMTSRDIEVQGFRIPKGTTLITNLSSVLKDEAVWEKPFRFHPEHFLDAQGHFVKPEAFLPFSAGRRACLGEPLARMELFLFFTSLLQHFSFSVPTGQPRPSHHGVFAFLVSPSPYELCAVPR
Chain of Melanin-concentrating hormone receptor 1 (Q99705 whole entry): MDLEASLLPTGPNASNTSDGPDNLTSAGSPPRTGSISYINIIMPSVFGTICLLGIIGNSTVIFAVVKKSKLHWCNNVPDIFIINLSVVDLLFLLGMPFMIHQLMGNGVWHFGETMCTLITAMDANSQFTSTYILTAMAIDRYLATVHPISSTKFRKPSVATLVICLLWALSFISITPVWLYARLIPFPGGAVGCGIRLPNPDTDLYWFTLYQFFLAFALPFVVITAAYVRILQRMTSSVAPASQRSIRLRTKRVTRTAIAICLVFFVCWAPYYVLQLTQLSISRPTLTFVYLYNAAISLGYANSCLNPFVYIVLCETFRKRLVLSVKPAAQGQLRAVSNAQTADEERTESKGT

SMILES: O=C1NCN(c2ccccc2)C12CCN(C[C@H]1COc3ccccc3O1)CC2
AC50 (Cytochrome P450 2C9 [1]): 31.6 µM (inconclusive) | AC50 (Cytochrome P450 1A2): 20 µM (inconclusive) | AC50 (Cytochrome P450 2C9 [2]): 15.8 µM (inconclusive)

IC50 [3]: > 43.8 µM (not active) | IC50 [4]: > 43.8 µM (not active) | EC50 [5]: 4.37 µM (active)
SMILES: Clc1ccccc1-c1nnn(Cc2ccc(-c3nnn[nH]3)cc2)n1

SMILES: O=C(Nc1nc(-c2ccc(Cl)cc2)cs1)c1ccc(Cl)cc1
CC50 (Vero): > 40 µM (active)

AC50 (Cytochrome P450 2D6): 3.16 µM (inconclusive) | AC50 (Cytochrome P450 3A4): 3.16 µM (inconclusive)
SMILES: C=CCOCC/C=C1/c2ccccc2C(OC)C1C (centres undefined)
